Entries after “also recorded” stand apart in the source; their conditions may differ.
Assays:
TRPV1 = TRPV1 (Homo sapiens, UniProt Q8NER1); assay: TRP channel panel primary screen (FLIPR Calcium 5, stable HEK line); format: cell-based; conditions: 0.3-300μM
Method: ±PZQ, (R)-PZQ and (S)-PZQ were screened against a panel of 17 human TRP channels (SB Drug Discovery, Glasgow). For all hTRPs, except for TRPM5, individual channel constructs were stably expressed in HEK cell lines. TRMP5 was expressed in a stable CHO cell line. In preparation for the assays, cells were trypsinized, counted and seeded (50,000 cells/well) in black, clear-bottomed 96 well plates and incubated overnight. The following day, cells were loaded with a fluorescent indicator (FLIPR Calcium 5 Assay kit for TRPA1, TRPV1, TRPV2, TRPV3, TRPV4, TRPV5, TRPC1, TRPM2, TRPM3 and TRPM8, or a membrane potential dye (FLIPR Membrane Potential Red Assay Kit for TRPC3, TRPC4, TRPC5, TRPC6, TRPC7, TRPM4 and TRPM5) prepared according to the manufacturer’s instructions in HEPES buffered Hank’s balanced salt solution (HBSS). Dye solution (10μl) was added to appropriate wells and incubated at 37°C for 1 hour. All assays were performed at room temperature. Compounds were tested at 0.3, 1, 3, 10, 30, 100μM and 300μM in triplicate in both agonist and antagonist mode to determine EC50 and IC50 values, which were compared with reference compounds. Compounds were screened at a final DMSO concentration of 0.5%. Plates were screened using a Flexstation (Molecular Devices, FX01138), monitoring fluorescence values every ~1.52 seconds. For ‘agonist mode’ testing, 10μl of the appropriate test compound, or standard agonist, was added after 20 seconds and fluorescence monitored for 2 minutes at λex = 485nm, λem = 525nm for Ca^2+ imaging and λex = 530nm, λem = 565nm for membrane potential measurements. For ‘antagonist mode’ testing, test compounds and standard inhibitors were added to appropriate wells and incubated for 10 minutes at room temperature prior to addition of standard agonist compound.

[1] = system: untransfected HEK293 cells; assay: Confocal Ca2+ imaging in untransfected HEK293 cells (control); format: cell-based, human; conditions: menthol 300μM, ±PZQ 100μM, ACh 100μM, capsaicin 1μM, AITC 100μM
Method: HEK293 cells (ATCC CRL-1573.3) were cultured in DMEM supplemented with 10% fetal bovine serum (FBS), penicillin (100 units/ml), streptomycin (100 μg/ml), and L-glutamine (290 μg/ml). Cells were transiently transfected (Lipofectamine LTX, Thermo Fisher) at a density of 2x10^6 cells per T-25 cell-culture flask with TRP channel cDNA. For Ca^2+ imaging assays, HEK293 cells were seeded onto 8-chambered coverglass slides (Thermo Fisher, 115411PK), at a density of 1x10^4 cells one day prior to imaging. Cells were washed twice with HBSS, and incubated with fluo-4-AM (4μM), pluronic F127 (0.4%) and probenecid (2.5mM) for 25 minutes at room temperature. Cells were then washed twice with HBSS, and left at room temperature (30 minutes) for de-esterification. Dishes were mounted on an Olympus IX81 microscope and fluorescence changes (λex = 488nM, λem = 513±15nm bandpass filter) monitored using a Yogokawa spinning disk confocal (CSU-X-M1N) and an Andor iXon Ultra 888 EMCCD camera.

TRPM5 = target: T1, TRPM5 (Homo sapiens, UniProt Q9NZQ8); assay: TRP channel panel primary screen (membrane potential dye, stable CHO line); format: cell-based; conditions: 0.3-300μM
T1 sequence (Q9NZQ8 1-1165): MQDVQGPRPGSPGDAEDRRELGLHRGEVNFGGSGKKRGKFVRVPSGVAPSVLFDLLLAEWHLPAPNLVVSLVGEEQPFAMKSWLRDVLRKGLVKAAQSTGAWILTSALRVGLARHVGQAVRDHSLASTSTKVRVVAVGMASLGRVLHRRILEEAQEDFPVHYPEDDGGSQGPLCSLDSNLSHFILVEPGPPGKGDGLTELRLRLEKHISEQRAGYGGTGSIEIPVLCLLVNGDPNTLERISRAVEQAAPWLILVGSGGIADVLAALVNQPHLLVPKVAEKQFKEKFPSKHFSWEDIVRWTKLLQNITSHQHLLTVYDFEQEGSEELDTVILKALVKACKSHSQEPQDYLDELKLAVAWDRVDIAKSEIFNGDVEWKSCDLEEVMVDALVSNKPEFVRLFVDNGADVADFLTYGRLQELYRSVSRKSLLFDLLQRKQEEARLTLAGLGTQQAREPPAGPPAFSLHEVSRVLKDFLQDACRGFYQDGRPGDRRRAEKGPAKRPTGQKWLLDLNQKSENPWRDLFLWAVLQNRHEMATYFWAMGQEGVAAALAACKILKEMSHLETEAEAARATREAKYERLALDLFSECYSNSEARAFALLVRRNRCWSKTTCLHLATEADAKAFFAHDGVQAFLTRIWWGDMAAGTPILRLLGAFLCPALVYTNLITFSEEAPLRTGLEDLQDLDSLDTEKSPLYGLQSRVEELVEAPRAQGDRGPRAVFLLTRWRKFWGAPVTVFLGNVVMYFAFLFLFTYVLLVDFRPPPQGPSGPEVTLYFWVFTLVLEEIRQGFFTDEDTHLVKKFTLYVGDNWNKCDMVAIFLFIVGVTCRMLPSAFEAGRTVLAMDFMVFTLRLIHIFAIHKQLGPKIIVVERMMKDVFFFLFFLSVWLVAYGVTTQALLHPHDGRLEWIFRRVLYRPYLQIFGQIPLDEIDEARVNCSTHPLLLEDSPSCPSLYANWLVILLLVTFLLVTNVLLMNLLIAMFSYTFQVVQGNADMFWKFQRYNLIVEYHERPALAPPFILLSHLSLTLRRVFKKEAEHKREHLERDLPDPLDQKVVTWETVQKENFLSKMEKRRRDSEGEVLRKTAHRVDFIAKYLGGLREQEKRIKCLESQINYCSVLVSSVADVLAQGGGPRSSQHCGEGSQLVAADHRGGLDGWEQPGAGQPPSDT
Method: ±PZQ, (R)-PZQ and (S)-PZQ were screened against a panel of 17 human TRP channels (SB Drug Discovery, Glasgow). For all hTRPs, except for TRPM5, individual channel constructs were stably expressed in HEK cell lines. TRMP5 was expressed in a stable CHO cell line. In preparation for the assays, cells were trypsinized, counted and seeded (50,000 cells/well) in black, clear-bottomed 96 well plates and incubated overnight. […] Plates were screened using a Flexstation (Molecular Devices, FX01138), monitoring fluorescence values every ~1.52 seconds. For ‘agonist mode’ testing, 10μl of the appropriate test compound, or standard agonist, was added after 20 seconds and fluorescence monitored for 2 minutes at λex = 485nm, λem = 525nm for Ca^2+ imaging and λex = 530nm, λem = 565nm for membrane potential measurements. […]

Sequence of TRPV1 (Q8NER1 whole entry): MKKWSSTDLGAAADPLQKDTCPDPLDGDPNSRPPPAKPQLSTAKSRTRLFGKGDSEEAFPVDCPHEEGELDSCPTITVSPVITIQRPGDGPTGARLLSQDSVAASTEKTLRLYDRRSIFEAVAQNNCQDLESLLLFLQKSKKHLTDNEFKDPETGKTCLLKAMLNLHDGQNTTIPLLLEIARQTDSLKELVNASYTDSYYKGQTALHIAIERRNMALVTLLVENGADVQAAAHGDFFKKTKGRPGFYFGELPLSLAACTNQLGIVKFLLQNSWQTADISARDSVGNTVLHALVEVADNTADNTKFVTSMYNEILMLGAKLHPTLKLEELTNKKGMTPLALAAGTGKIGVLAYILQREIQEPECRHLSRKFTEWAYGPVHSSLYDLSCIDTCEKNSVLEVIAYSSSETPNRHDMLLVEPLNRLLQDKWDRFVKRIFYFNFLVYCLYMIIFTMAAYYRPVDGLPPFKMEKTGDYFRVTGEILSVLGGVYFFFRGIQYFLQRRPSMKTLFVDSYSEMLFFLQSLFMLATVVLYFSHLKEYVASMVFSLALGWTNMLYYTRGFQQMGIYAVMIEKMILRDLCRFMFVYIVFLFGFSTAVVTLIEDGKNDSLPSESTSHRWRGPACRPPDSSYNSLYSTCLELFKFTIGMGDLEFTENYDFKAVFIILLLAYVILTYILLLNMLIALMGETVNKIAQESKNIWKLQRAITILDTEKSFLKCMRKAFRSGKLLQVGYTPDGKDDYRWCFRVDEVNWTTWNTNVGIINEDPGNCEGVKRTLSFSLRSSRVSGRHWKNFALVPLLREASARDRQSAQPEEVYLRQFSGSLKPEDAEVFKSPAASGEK

Structure (SMILES)	activity against TRPV1 in primary screen (TRPV1)	Ca2+ response in untransfected HEK293 cells [1]	activation of TRPM5 in primary screen (TRPM5)
O=C(C1CCCCC1)N1CC(=O)N2CCc3ccccc3C2C1 (racemic) [±PZQ, praziquantel]	no activity	neither ±PZQ or menthol elevated cytoplasmic Ca^2+ levels; also recorded: neither the addition of the TRPV1 agonist capsaicin (1μM) nor addition of ±PZQ evoked a Ca^2+ response; also recorded: without effect	
O=C(C1CCCCC1)N1CC(=O)N2CCc3ccccc3[C@H]2C1 [(S)-PZQ]			not activated

— publication PMC5927461, “Activation of host transient receptor potential (TRP) channels by praziquantel stereoisomers” (PLoS Neglected Tropical Diseases, 2018)
